Laboratory results as given in paper PMC10714930, “In silico virtual screening for the identification of novel inhibitors against dihydrodipicolinate reductase (DapB) of Mycobacterium tuberculosis, a key enzyme of diaminopimelate pathway” (Microbiology Spectrum, 2023).
≈ marks a conversion by molar mass, not a printed value.

Key:
[1] = target: DapA and DapB (purified enzymes) (Mycobacterium tuberculosis, UniProt P9WP25); format: biochemical; settings: coupled enzyme assay, Michaelis-Menten plot
[2] = system: M. tb H37Rv inside THP-1 macrophages; assay: Intracellular inhibition assay in THP-1 macrophages; format: cell-based; settings: Mycobacterium tuberculosis, 120 h, CFU enumeration after 5 days of infection
M. tb H37Rv [3] = assay: M. tb whole cell growth inhibition by resazurin microtiter assay; format: cell-based, Mycobacterium tuberculosis
M. tb DapB = M. tb DapB (Mycobacterium tuberculosis, UniProt P9WP23); assay: Dihydrodipicolinate reductase (DapB)-coupled enzymatic assay; format: biochemical
Method: The enzymatic assay of DapB is a coupled assay which requires the upstream enzyme DapA. The formation of tetrahydrodipicolinate by DapB was measured by monitoring conversion of NADPH to NADP^+ spectrophotometrically at 340 nm. The substrate of DapB, i.e., 2,4-dihydrodipicolinic acid, was prepared enzymatically through condensation of Aspartate Semialdehyde [(S)-ASA] and sodium pyruvate by DapA. The standard assay was performed in 50 mM sodium phosphate buffer (pH 7.5) consisting of 400 µM (S)-ASA, 160 µM NADPH, 500 µM sodium pyruvate, 3 µg DapB, and 5 µg DapA in a total reaction volume of 100 µL. […] The decrease in the absorbance of NADPH corresponding to the consumption of substrate was monitored at 340 nm after incubation for 10 minutes at room temperature. […] The activity of DapB in the presence of compounds was measured similarly; however, the enzyme was pre-incubated with the compounds for 10 minutes at 37°C. The percent activity for the samples in the presence of inhibitors was calculated by using a two-step method. Firstly, the absorbance values at 340 nm for each test sample (with or without the inhibitor) were normalized with the negative control (no substrate control). Subsequently, the percent activity was calculated by using the formula (normalized A340nm of inhibitor sample/normalized A340nm of no inhibitor sample) × 100. […]

M. tb H37Rv [4] = assay: Checkerboard assay of B59 with B20; format: cell-based, Mycobacterium tuberculosis
mycobacterial DapB = system: mycobacterial DapB; set-up: method as in PMID 12962488; settings: cited from earlier work

DapA and DapB (purified enzymes), sequence (P9WP25 whole entry, looked up): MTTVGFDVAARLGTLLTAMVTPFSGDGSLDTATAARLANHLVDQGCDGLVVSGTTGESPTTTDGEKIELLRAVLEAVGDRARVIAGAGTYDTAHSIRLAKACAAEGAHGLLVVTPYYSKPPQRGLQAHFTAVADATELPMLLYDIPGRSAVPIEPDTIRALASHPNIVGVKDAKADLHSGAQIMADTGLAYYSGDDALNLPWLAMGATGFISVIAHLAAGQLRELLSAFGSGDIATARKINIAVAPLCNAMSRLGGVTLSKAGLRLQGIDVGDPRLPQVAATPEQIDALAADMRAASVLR
M. tb DapB, sequence (P9WP23 whole entry, looked up): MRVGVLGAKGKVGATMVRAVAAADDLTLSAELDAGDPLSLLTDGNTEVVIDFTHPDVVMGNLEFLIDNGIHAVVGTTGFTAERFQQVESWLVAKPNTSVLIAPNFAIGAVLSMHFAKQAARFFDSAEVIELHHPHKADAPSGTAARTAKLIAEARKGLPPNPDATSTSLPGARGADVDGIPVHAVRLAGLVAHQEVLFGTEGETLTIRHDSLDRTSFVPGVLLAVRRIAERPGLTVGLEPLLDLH

## CC(=O)C(=O)O [sodium pyruvate]
[1]
  Km: 125 µM

## COC(=O)CCCc1nc2ccccc2nc1N=Nc1ccccc1 [Compound B59, 4-(3-Phenylazoquinoxalin-2-yl) butanoic acid methyl ester]
[2]
  MIC90: 73 µg/mL (≈ 218 µM)
M. tb H37Rv [3]; M. tb H37Rv, 7 days, resazurin and drop plating
  MIC99 exhibited by compounds against M. tb growth: 20 µg/mL (≈ 59.8 µM)
M. tb H37Rv [3]; Mycobacterium tuberculosis, 168 h, M. tb H37Rv, 7 days, resazurin and drop plating, read-out: MIC99 exhibited by compounds against M. tb growth
  MIC99: 20 µg/mL (≈ 59.8 µM)
M. tb H37Rv [3]; at 0.5X MIC99 and 0.25X MIC99
  effect on bacterial growth by CFU enumeration: inhibition of the bacterial growth
M. tb DapB; IC50 exhibited by compounds in biochemical assay, DapB enzymatic activity, compounds 10-100 µg/mL
  IC50: 32.9 µM
M. tb DapB; at 100 µg/mL, read-out: inhibition of DapB enzyme activity
  inhibition at 100 µg/mL: > 80%
M. tb H37Rv [4]; MIC99 in combination / MIC99 alone
  fractional inhibitory concentration (FIC): 0.062
M. tb H37Rv [4]; in the presence of 20 µg/mL of compound B20
  MIC99 of B59 in combination: 1.25 µg/mL

## NC(=O)C1=CN([C@@H]2O[C@H](COP(=O)(O)OP(=O)(O)OC[C@H]3O[C@@H](n4cnc5c(N)ncnc54)[C@H](OP(=O)(O)O)[C@@H]3O)[C@@H](O)[C@H]2O)C=CC1 [NADPH]
Mycobacterial DapB
  Km: 11.8 ± 1.5 µM

## NC(=O)C1=CN([C@@H]2O[C@H](COP(=O)(O)OP(=O)(O)OC[C@H]3O[C@@H](n4cnc5c(N)ncnc54)[C@H](O)[C@@H]3O)[C@@H](O)[C@H]2O)C=CC1 [NADH]
Mycobacterial DapB
  Km: 3.2 ± 0.4 µM

## N[C@@H](CC=O)C(=O)O [ASA, L-aspartate-β-semialdehyde]
[1]
  Km: 345 µM
